Source: paper PMC7914897, “Cytotoxic Potential of a-Azepano- and 3-Amino-3,4-SeCo-Triterpenoids” (International Journal of Molecular Sciences, 2021)
Where two headings read alike, the source gives them in different places.

Key:
[1] = tested on: SR (Leukemia); assay: NCI-60 screen (SRB, 48 h); type: cell-based
[2] = tested on: LOX IMVI (Melanoma); assay: NCI-60 screen (SRB, 48 h); type: cell-based; settings: Homo sapiens; for IC (TGI) / activity at 10 µM: 48 h; for activity at 10 µM: 1 dose 10 µM, read-out: Growth % of the Most Sensitive Cell Lines
[3] = tested on: OVCAR-4 (Ovarian cancer); assay: NCI-60 screen (SRB, 48 h); type: cell-based; settings: Homo sapiens; for IC (TGI): OVCAR-4, 48 h
[4] = tested on: MDA-MB-468 (Breast cancer); assay: cells; settings: Homo sapiens; for GI50: MDA-MB-468; for IC (TGI): MDA-MB-468, 48 h, read-out: TGI; for CC50: MDA-MB-468, read-out: LC50
[5] = tested on: Colon Cancer subpanel; assay: NCI-60 screen, subpanel; settings: Homo sapiens; for IC (TGI): 48 h, read-out: TGI MG_MID; for GI50: read-out: GI50 MG_MID; for CC50: read-out: LC50 MG_MID
[6] = tested on: Ovarian Cancer subpanel; assay: NCI-60 screen, subpanel; settings: Homo sapiens; for IC (TGI): 48 h, read-out: TGI MG_MID; for GI50: read-out: GI50 MG_MID; for CC50: read-out: LC50 MG_MID
[7] = tested on: Breast cancer subpanel; assay: NCI-60 screen, subpanel; settings: Homo sapiens; for IC (TGI): 48 h, read-out: TGI MG_MID; for GI50: read-out: GI50 MG_MID; for CC50: read-out: LC50 MG_MID
[8] = tested on: MOLT-4 (Leukemia); assay: NCI-60 screen (SRB, 48 h); settings: Homo sapiens; for GI50: MOLT-4; for IC (TGI): MOLT-4, 48 h, read-out: TGI; for CC50: MOLT-4, read-out: LC50
[9] = tested on: RPMI-8226 (Leukemia); assay: NCI-60 screen (SRB, 48 h); settings: Homo sapiens; for GI50: RPMI-8226; for IC (TGI): RPMI-8226, 48 h, read-out: TGI; for CC50: RPMI-8226, read-out: LC50
[10] = tested on: EKVX (NSC lung cancer); assay: NCI-60 screen (SRB, 48 h); settings: Homo sapiens; for IC (TGI): 48 h, read-out: TGI; for CC50: read-out: LC50
[11] = tested on: HOP-92 (NSC lung cancer); assay: NCI-60 screen (SRB, 48 h); settings: Homo sapiens; for GI50: HOP-92; for IC (TGI): HOP-92, 48 h, read-out: TGI
[12] = tested on: NCI-H460 (NSC lung cancer); assay: NCI-60 screen (SRB, 48 h); settings: for GI50 / IC (TGI) / CC50: Homo sapiens; for GI50: NCI-H460; for IC (TGI): NCI-H460, 48 h, read-out: TGI; for CC50: NCI-H460, read-out: LC50
[13] = tested on: SW-620 (Colon cancer); assay: NCI-60 screen (SRB, 48 h); settings: Homo sapiens; for GI50: SW-620; for IC (TGI): SW-620, 48 h, read-out: TGI; for CC50: SW-620, read-out: LC50
[14] = tested on: SNB-75 (CNS cancer); assay: NCI-60 screen (SRB, 48 h); settings: Homo sapiens; for GI50: SNB-75; for IC (TGI): SNB-75, 48 h, read-out: TGI; for CC50: SNB-75, read-out: LC50
[15] = tested on: U251 (CNS cancer); assay: NCI-60 screen (SRB, 48 h); settings: for GI50 / IC (TGI) / CC50: Homo sapiens; for GI50: U-251; for IC (TGI): U-251, 48 h, read-out: TGI; for CC50: U-251, read-out: LC50
[16] = tested on: M14 (Melanoma); assay: NCI-60 screen (SRB, 48 h); settings: Homo sapiens; for GI50: M14; for IC (TGI): M14, 48 h, read-out: TGI; for CC50: M14, read-out: LC50
[17] = tested on: SK-MEL-28 (Melanoma); assay: NCI-60 screen (SRB, 48 h); settings: for GI50 / IC (TGI) / CC50: Homo sapiens; for GI50: SK-MEL-28; for IC (TGI): SK-MEL-28, 48 h, read-out: TGI; for CC50: SK-MEL-28, read-out: LC50
[18] = tested on: NCI/ADR-RES (Ovarian cancer); assay: NCI-60 screen (SRB, 48 h); settings: Homo sapiens; for IC (TGI): 48 h, read-out: TGI
[19] = tested on: SK-OV-3 (Ovarian cancer); assay: NCI-60 screen (SRB, 48 h); settings: Homo sapiens; for GI50: SK-OV-3; for IC (TGI): SK-OV-3, 48 h, read-out: TGI; for CC50: SK-OV-3, read-out: LC50
[20] = tested on: 786-0 (Renal cancer); assay: NCI-60 screen (SRB, 48 h); settings: for GI50 / IC (TGI) / CC50: Homo sapiens; for GI50: 786-0; for IC (TGI): 786-0, 48 h, read-out: TGI; for CC50: 786-0, read-out: LC50
[21] = tested on: ACHN (Renal cancer); assay: NCI-60 screen (SRB, 48 h); settings: Homo sapiens; for IC (TGI): 48 h, read-out: TGI; for CC50: read-out: LC50
[22] = tested on: RXF 393 (Renal cancer); assay: NCI-60 screen (SRB, 48 h); settings: Homo sapiens; for GI50: RXF 393; for IC (TGI): RXF 393, 48 h, read-out: TGI; for CC50: RXF 393, read-out: LC50
[23] = tested on: T-47D (Breast cancer); assay: NCI-60 screen (SRB, 48 h); settings: Homo sapiens, T47D; for IC (TGI): 48 h, read-out: TGI; for CC50: read-out: LC50

SMILES: C[C@H]1[C@H](C)CC[C@]2(CO)CC[C@]3(C)C(=CC[C@@H]4[C@@]5(C)CCCNC(C)(C)[C@@H]5CC[C@]43C)[C@H]12 [Compound 4, azepanouvaol]
- TGI [1]: 3.13 µM
- GI50 ([1]; Homo sapiens): 1.18 µM
- GI50 [2]: 1.59 µM
- IC (TGI) [2]: 3.05 µM
- activity at 10 µM [2]: -94.9%
- CC50 ([2]; read-out: LC50 (the source's name)): 5.84 µM
- IC (TGI) [3]: 3.79 µM
- GI50 ([3]; OVCAR-4, read-out: GI50): 1.72 µM
- GI50 [4]: 1.7 µM
- IC (TGI) [4]: 3.44 µM
- CC50 [4]: 6.98 µM
- IC (TGI) [5]: 3.07 µM
- GI50 [5]: 1.52 µM
- CC50 [5]: 6.16 µM
- IC (TGI) [6]: 3.59 µM
- GI50 [6]: 1.91 µM
- CC50 [6]: 11.4 µM
- IC (TGI) [7]: 3.69 µM
- GI50 [7]: 1.74 µM
- CC50 [7]: 12.6 µM
- GI50 [8]: 1.37 µM
- IC (TGI) [8]: 3.15 µM
- CC50 [8]: 7.25 µM
- GI50 [9]: 1.85 µM
- IC (TGI) [9]: 4.15 µM
- CC50 [9]: 9.27 µM
- GI50 [10]: 1.66 µM
- IC (TGI) [10]: 3.29 µM
- CC50 [10]: 6.53 µM
- GI50 [11]: 1.52 µM
- IC (TGI) [11]: 3.19 µM
- CC50 ([11]; HOP-92, read-out: LC50): 6.67 µM
- GI50 [12]: 1.78 µM
- IC (TGI) [12]: 3.35 µM
- CC50 [12]: 6.3 µM
- Growth % of the Most Sensitive Cell Lines ([12]; NCI-H460, 1 dose 10 µM): −83.30%
- GI50 [13]: 1.79 µM
- IC (TGI) [13]: 3.54 µM
- CC50 [13]: 7.03 µM
- GI50 [14]: 1.49 µM
- IC (TGI) [14]: 2.9 µM
- CC50 [14]: 5.63 µM
- GI50 [15]: 1.67 µM
- IC (TGI) [15]: 3.15 µM
- CC50 [15]: 5.94 µM
- Growth % of the Most Sensitive Cell Lines ([15]; U251, 1 dose 10 µM): −83.30%
- GI50 [16]: 1.61 µM
- IC (TGI) [16]: 3.12 µM
- CC50 [16]: 6.04 µM
- GI50 [17]: 1.75 µM
- IC (TGI) [17]: 3.3 µM
- CC50 [17]: 6.22 µM
- Growth % of the Most Sensitive Cell Lines ([17]; SK-MEL-28, 1 dose 10 µM): −84.86%
- GI50 [18]: 1.76 µM
- IC (TGI) [18]: 3.47 µM
- CC50 ([18]; read-out: LC50): 6.84 µM
- GI50 [19]: 2.54 µM
- IC (TGI) [19]: 3.97 µM
- CC50 [19]: 35.2 µM
- GI50 [20]: 1.6 µM
- IC (TGI) [20]: 3.06 µM
- CC50 [20]: 5.85 µM
- GI50 [21]: 1.69 µM
- IC (TGI) [21]: 3.06 µM
- CC50 [21]: 5.54 µM
- GI50 [22]: 1.81 µM
- IC (TGI) [22]: 3.51 µM
- CC50 [22]: 6.79 µM
- GI50 [23]: 1.68 µM
- IC (TGI) [23]: 4.03 µM
- CC50 [23]: 9.66 µM

SMILES: CC1(C)CC[C@]23CC[C@]4(C)[C@H](CC[C@@H]5[C@@]6(C)CCCNC(C)(C)[C@@H]6CC[C@]54C)[C@H]2[C@H]1OC3 [Compound 7, Azepanoallobetulin]
- TGI [1]: 4.12 µM
- GI50 ([1]; Homo sapiens): 1.49 µM
- CC50 ([1]; Homo sapiens, read-out: LC50 (the source's name)): > 100 µM
- IC (TGI) [2]: 3.08 µM
- activity at 10 µM [2]: -94.9%
- GI50 ([2]; read-out: GI50): 1.6 µM
- GI50 ([3]; OVCAR-4): 1.65 µM
- IC (TGI) [3]: 3.12 µM
- CC50 ([3]; OVCAR-4, read-out: LC50 (the source's name)): 5.88 µM
- GI50 [4]: 1.61 µM
- IC (TGI) [4]: 3.45 µM
- CC50 [4]: 7.39 µM
- IC (TGI) [5]: 3.11 µM
- GI50 [5]: 1.58 µM
- CC50 [5]: 6.11 µM
- IC (TGI) [6]: 3.99 µM
- GI50 [6]: 1.86 µM
- CC50 [6]: 12.3 µM
- IC (TGI) [7]: 3.55 µM
- GI50 [7]: 1.68 µM
- CC50 [7]: 6.06 µM
- GI50 [8]: 2.1 µM
- IC (TGI) [8]: 5.04 µM
- CC50 [8]: 74.8 µM
- GI50 [9]: 1.94 µM
- IC (TGI) [9]: 4.58 µM
- CC50 [9]: 96.8 µM
- GI50 [10]: 1.68 µM
- IC (TGI) [10]: 3.37 µM
- CC50 [10]: 6.77 µM
- GI50 [11]: 1.41 µM
- IC (TGI) [11]: 2.96 µM
- GI50 [12]: 0.65 µM
- IC (TGI) [12]: 2.2 µM
- CC50 [12]: 6.12 µM
- GI50 [13]: 1.75 µM
- IC (TGI) [13]: 3.49 µM
- CC50 [13]: 6.95 µM
- GI50 [14]: 1.5 µM
- IC (TGI) [14]: 2.94 µM
- CC50 [14]: 5.76 µM
- GI50 [15]: 1.74 µM
- IC (TGI) [15]: 3.23 µM
- CC50 [15]: 5.98 µM
- GI50 [16]: 1.77 µM
- IC (TGI) [16]: 3.31 µM
- CC50 [16]: 6.19 µM
- GI50 [17]: 1.66 µM
- IC (TGI) [17]: 3.18 µM
- CC50 [17]: 6.07 µM
- GI50 [18]: 1.78 µM
- IC (TGI) [18]: 3.59 µM
- GI50 [19]: 2.73 µM
- IC (TGI) [19]: 7.93 µM
- CC50 [19]: 36.9 µM
- Growth % of the Most Sensitive Cell Lines ([20]; 786-0, 1 dose 10 µM): −96.23%
- GI50 [20]: 1.66 µM
- IC (TGI) [20]: 3.21 µM
- CC50 [20]: 6.18 µM
- GI50 [21]: 1.71 µM
- IC (TGI) [21]: 3.08 µM
- CC50 [21]: 5.55 µM
- GI50 [22]: 1.56 µM
- IC (TGI) [22]: 2.98 µM
- CC50 [22]: 5.69 µM
- GI50 [23]: 1.71 µM
- IC (TGI) [23]: 3.69 µM
- CC50 [23]: 7.99 µM
